Test results from publication PMC2656996, “Functional cell permeable motifs within medically relevant proteins” (Journal of Biotechnology, 2007).
Non-standard residues stand in square brackets, D forms with d. Residues, ends and D or L forms follow the SMILES beside them. N(NBD)Gly = O=C(O)CNc1ccc([N+](=O)[O-])c2nonc12

Experiments:
RAW 264.7 cells [1] = test: Internalisation of NBD-labelled peptides, flow cytometry with dithionite quench; format: cell-based, murine; conditions: increasing concentrations of NBD-labelled peptide, 2 h at 37 °C, DMEM 10% FCS, FACS, average of three independent experiments
Experimental: (§1) HeLa or RAW 264.7 cells were cultured at 37 °C, 10% CO2, in Dulbecco's modified Eagle's medium (DMEM) (Invitrogen), containing 10% foetal calf serum (FCS, Harlan), 100 U/ml penicillin and 100 μg/ml streptomycin. Quantification of internalisation of NBD-labelled peptides was carried out according to the procedure described by [Drin et al. (2001)]. Briefly, cells were seeded in six-well plates (5 × 10^5 cells/well) and treated with 0–160 μM of peptide for 2 h at 37 °C. Cells were washed twice in PBS, harvested using a solution of Versene (1:500) (Invitrogen) and re-suspended in 0.5 ml (final volume) of ice-cold PBS. Cells were analysed by flow cytometry using a Becton Dickinson FACS Scan instrument and the geometric mean of fluorescence intensity was considered to represent the amount of cell-associated peptide. Following flow cytometry, 5 μl of freshly prepared dithionite stock solution (1 M Na2S2O4 in 1 M Tris–HCl (pH 10)) was added to cells maintained at 4 °C for 5 min and analysed again with flow cytometry to measure residual fluorescence. Fluorescence from cells treated with dithionite only was subtracted from the fluorescence of cell-associated or internalised peptides to infer background values.

HeLa cells = test: as above; format: cell-based, human; conditions: NBD-labelled peptide 10, 40 and 160 μM, 2 h at 37 °C, DMEM 10% FCS, FACS geometric mean fluorescence, dithionite-only background subtracted, average of three independent experiments
Experimental: as §1

RAW 264.7 cells [2] = test: Cell viability, CellTiter-Glo Luminescent Assay; format: cell-based, murine; conditions: RAW 264.7, 10, 40 and 160 μM peptide, incubation 2, 4, 8 and 18 h
From the text: CellTiter-Glo Luminescent Assay (Promega) was utilised to determine viability of RAW 264.7 cells following treatment with peptides, according to the manufacturer's instructions.

CSCC[C@H](NC(=O)[C@H](CCCCN)NC(=O)CNc1ccc([N+](=O)[O-])c2nonc12)C(=O)N[C@@H](C)C(=O)N[C@@H](CC(=O)O)C(=O)N[C@@H](Cc1c[nH]c2ccccc12)C(=O)N[C@@H](Cc1ccccc1)C(=O)N[C@@H](CCCNC(=N)N)C(=O)N[C@@H](CCC(N)=O)C(=O)N[C@H](C(=O)N[C@@H](CC(C)C)C(=O)N[C@@H](CC(C)C)C(=O)N[C@@H](C)C(=O)N[C@@H](C)C(=O)N1CCC[C@H]1C(=O)N[C@@H](C)C(=O)N[C@@H](C)C(=O)N[C@@H](C)C(=O)N1CCC[C@H]1C(=O)N[C@@H](CC(N)=O)C(=O)N[C@@H](CO)C(=O)N1CCC[C@H]1C(=O)N[C@@H](CCC(=O)O)C(=O)N[C@@H](CO)C(=O)N[C@H](C(N)=O)[C@@H](C)O)[C@@H](C)O [NBD-TIRAP^Ala] (H-[N(NBD)Gly]KMADWFRQTLLAAPAAAPNSPEST-NH2)
Internalised peptide, mean cell fluorescence after sodium dithionite quencher (RAW 264.7 cells [1]): substantially less fluorescent | Internalised peptide, mean cell fluorescence after sodium dithionite quencher (HeLa cells): substantially less fluorescent

CSCC[C@H](NC(=O)[C@H](CCCCN)NC(=O)CNc1ccc([N+](=O)[O-])c2nonc12)C(=O)N[C@@H](C)C(=O)N[C@@H](CC(=O)O)C(=O)N[C@@H](Cc1c[nH]c2ccccc12)C(=O)N[C@@H](Cc1ccccc1)C(=O)N[C@@H](CCCNC(=N)N)C(=O)N[C@@H](CCC(N)=O)C(=O)N[C@H](C(=O)N[C@@H](CC(C)C)C(=O)N[C@@H](CC(C)C)C(=O)N[C@@H](CCCCN)C(=O)N[C@@H](CCCCN)C(=O)N1CCC[C@H]1C(=O)N[C@@H](CCCCN)C(=O)N[C@@H](CCCCN)C(=O)N[C@@H](CCCNC(=N)N)C(=O)N1CCC[C@H]1C(=O)N[C@@H](CC(N)=O)C(=O)N[C@@H](CO)C(=O)N1CCC[C@H]1C(=O)N[C@@H](CCC(=O)O)C(=O)N[C@@H](CO)C(=O)N[C@H](C(N)=O)[C@@H](C)O)[C@@H](C)O [TIRAP] (H-[N(NBD)Gly]KMADWFRQTLLKKPKKRPNSPEST-NH2)
Internalised peptide, mean cell fluorescence after sodium dithionite quencher (RAW 264.7 cells [1]): cell permeable properties | Internalised peptide, mean cell fluorescence after sodium dithionite quencher (HeLa cells): cell permeable properties

CC[C@H](C)[C@H](NC(=O)[C@H](C)NC(=O)CNC(=O)CNC(=O)[C@@H]1CCCN1C(=O)[C@@H](NC(=O)[C@H](C)NC(=O)[C@H](CC(=O)O)NC(=O)[C@H](CCCNC(=N)N)NC(=O)[C@H](CC(C)C)NC(=O)[C@H](CCC(N)=O)NC(=O)[C@H](CC(C)C)NC(=O)[C@@H](NC(=O)[C@H](CO)NC(=O)[C@H](CCC(=O)O)NC(=O)[C@@H]1CCCN1C(=O)[C@H](CO)NC(=O)[C@H](CC(N)=O)NC(=O)[C@@H]1CCCN1C(=O)[C@H](CCCNC(=N)N)NC(=O)[C@H](CCCCN)NC(=O)[C@H](CCCCN)NC(=O)[C@@H]1CCCN1C(=O)[C@H](CCCCN)NC(=O)[C@H](CCCCN)NC(=O)[C@H](CC(C)C)NC(=O)[C@H](CC(C)C)NC(=O)[C@@H](NC(=O)[C@H](CCC(N)=O)NC(=O)[C@H](CCCNC(=N)N)NC(=O)[C@H](Cc1ccccc1)NC(=O)[C@H](Cc1c[nH]c2ccccc12)NC(=O)[C@H](CC(=O)O)NC(=O)[C@H](C)NC(=O)[C@H](CCSC)NC(=O)[C@H](CCCCN)NC(=O)CN)[C@@H](C)O)[C@@H](C)O)[C@@H](C)O)C(=O)N[C@H](C(=O)N[C@@H](CO)C(N)=O)C(C)C [TBX2] (H-GKMADWFRQTLLKKPKKRPNSPESTLQLRDATPGGAIVS-NH2)
Cellular viability (RAW 264.7 cells [2]): no significant reduction in cellular viability

C[C@H](NC(=O)[C@H](C)NC(=O)[C@H](CCC(N)=O)NC(=O)[C@H](C)NC(=O)[C@H](C)NC(=O)[C@H](CCCCN)NC(=O)[C@H](CCCCN)NC(=O)[C@H](CCCNC(=N)N)NC(=O)CNc1ccc([N+](=O)[O-])c2nonc12)C(=O)N[C@@H](C)C(=O)N1CCC[C@H]1C(=O)N1CCC[C@H]1C(=O)N[C@@H](CCC(N)=O)C(N)=O [TAT^Ala, reference compound] (H-[N(NBD)Gly]RKKAAQAAAPPQ-NH2)
Internalised peptide, mean cell fluorescence after sodium dithionite quencher (HeLa cells): very little fluorescence
